Measurements: patent publication US10563263B2, “Genetic polymorphisms associated with statin response and cardiovascular diseases, methods of detection and uses thereof” (CELERA CORPORATION, priority 2010, dated 2020)

Tested on: CVD (CHD or stroke)
Assay: Meta-analysis of CARE and WOSCOPS combined, synergy index, CVD endpoint
Assay type: in vivo, human
Text: Tables 4-5 provide meta-analyses of CARE and WOSCOPS combined (2nd section of each table) for two endpoints (CHD and CVD) and three genetic models (dominant, recessive, and additive), as well as logistic regression analyses of CARE (3rd section of each table) and WOSCOPS (4th section of each table) individually.
Tables 12 and 17 provide results of meta-analysis of the CARE and WOSCOPS sample sets combined by direct genotyping and by imputing genotypes.
“P” indicates the p-value, and “P(R)” (or “P.R.”) indicates the p-value random effect. Both of these are p-values corresponding to a statistical test of whether the combined synergy index is equal to one but use different assumptions to derive the p-value. “P” is calculated using a fixed effects model, and “P(R)” is calculated using a random effects model.
“OR” indicates the odds ratio (synergy index) calculated from a fixed effects model, and “OR(R)” (or “OR.R.”) indicates the odds ratio (synergy index) calculated from a random effects model.

## CC[C@H](C)C(=O)O[C@H]1C[C@H](O)C=C2C=C[C@H](C)[C@H](CC[C@@H](O)C[C@@H](O)CC(=O)O)[C@H]21 [Pravastatin, pravastatin]
rs483159 allele T DOMINANT Imputed
  OR(R): 1.4202
rs489441 allele G ADDITIVE Imputed
  OR(R): 1.4992
rs489441 allele G DOMINANT Imputed
  OR(R): 1.6072
rs937890 allele G (A1), DOMINANT, Imputed
  OR(R): 0.6731
rs949016 allele C (A1), ADDITIVE, Imputed
  OR(R): 1.5082
rs966583 allele A (A1), ADDITIVE, Imputed
  OR(R): 0.7272
rs966583 allele A (A1), DOMINANT, Imputed
  OR(R): 0.5916
rs974130 allele A (A1), RECESSIVE, Genotyped
  OR(R): 2.0112
rs977160 allele T (A1), ADDITIVE, Imputed
  OR(R): 1.5465
rs985375 allele A (A1), GENOTYPIC, Imputed
  OR(R): 2.8891
rs4760895 allele A ADDITIVE Imputed
  OR(R): 0.7392
rs4760895 allele A DOMINANT Imputed
  OR(R): 0.6285
rs4760895 allele A GENOTYPIC Imputed
  OR(R): 0.574
rs4764738 allele A ADDITIVE Imputed
  OR(R): 1.4051
rs4764738 allele A GENOTYPIC Imputed
  OR(R): 1.9728
rs4764974 allele T ADDITIVE Imputed
  OR(R): 1.3855
rs4764974 allele T GENOTYPIC Imputed
  OR(R): 1.9196
rs4798366 allele G RECESSIVE Imputed
  OR(R): 1.8332
rs4836502 allele T DOMINANT Imputed
  OR(R): 0.6712
rs4836507 allele C DOMINANT Imputed
  OR(R): 0.6775
rs4836744 allele A ADDITIVE Imputed
  OR(R): 0.7345
rs4836744 allele A DOMINANT Imputed
  OR(R): 0.6854
rs4848944 allele C RECESSIVE Genotyped
  OR(R): 0.5819
rs4851529 allele A DOMINANT Imputed
  OR(R): 0.6476
rs4851531 allele T DOMINANT Imputed
  OR(R): 0.6602
rs4858046 allele T GENOTYPIC Genotyped
  OR(R): 2.0533
rs4878214 allele A ADDITIVE Imputed
  OR(R): 0.6477
rs4880803 allele A ADDITIVE Imputed
  OR(R): 0.7694
rs4896568 allele T DOMINANT Imputed
  OR(R): 0.6231
rs4938851 allele T DOMINANT Imputed
  OR(R): 1.4515
rs4964416 allele C DOMINANT Imputed
  OR(R): 0.6251
rs5756669 allele C DOMINANT Imputed
  OR(R): 1.6531
rs6033138 allele C ADDITIVE Imputed
  OR(R): 1.3837
rs6033138 allele C GENOTYPIC Imputed
  OR(R): 1.9484
rs6033138 allele C RECESSIVE Imputed
  OR(R): 1.6769
rs6040619 allele C ADDITIVE Imputed
  OR(R): 1.3881
rs6040619 allele C GENOTYPIC Imputed
  OR(R): 2.0334
rs6040619 allele C RECESSIVE Imputed
  OR(R): 1.7879
rs6040625 allele T ADDITIVE Imputed
  OR(R): 1.3888
rs6040625 allele T GENOTYPIC Imputed
  OR(R): 2.0214
rs6040625 allele T RECESSIVE Imputed
  OR(R): 1.7684
rs6040630 allele A ADDITIVE Imputed
  OR(R): 1.3767
rs6040630 allele A GENOTYPIC Imputed
  OR(R): 1.9741
rs6040630 allele A RECESSIVE Imputed
  OR(R): 1.7241
rs6040633 allele A ADDITIVE Imputed
  OR(R): 1.3703
rs6040633 allele A GENOTYPIC Imputed
  OR(R): 1.9475
rs6040633 allele A RECESSIVE Imputed
  OR(R): 1.6999
rs6040634 allele T ADDITIVE Imputed
  OR(R): 1.3722
rs6040634 allele T GENOTYPIC Imputed
  OR(R): 1.9531
rs6040634 allele T RECESSIVE Imputed
  OR(R): 1.7021
rs6040636 allele T ADDITIVE Imputed
  OR(R): 1.3761
rs6040636 allele T GENOTYPIC Imputed
  OR(R): 1.9585
